pKi: −log10 of the molar value. “And” between values parts separate entries of the source, which are not always exact repeats. Equal entries are not always repeated.

Data set [1] is described as follows: Metabolic stability in mouse hepatic microsomes with NADPH-generating system. The format is in vitro ADME. The conditions noted are these: pH 7.4; for half-life at 1 μM: mouse liver microsomes 0.5 mg/mL, 1 μM compound, 37°C; for microsomal CLint at 1 μM: calculated from in vitro half-life, mouse liver microsomes. On the procedure:
Metabolic reactions were initiated by the addition of a NADPH regenerating system (NADP, glucose-6-phosphate, glucose-6-phosphate dehydrogenase, final glucose-6-phosphate dehydrogenase concentration, 1 unit/mL). Aliquots were removed (0, 5, 10, 30, and 60 min) and immediately mixed with an equal volume of cold acetonitrile containing internal standard. Test compound incubated with microsomes without NADPH regenerating system for 60 min was included. […] The column used was a Phenomenex Gemini C-18 (250 × 4.6 mm, 5 μm particle size). The samples were isocratically eluted using CH3CN/ammonium formate (20 mM, pH 5.5) 7:3 (v/v) as mobile phase. […] Liver microsomes provide the most convenient way to study cytochrome P450 enzyme-mediated metabolism.

On the set-up of data set [2]: method as in Leopoldo et al., 2008. The conditions noted are these: mice, intraperitoneal injection; ref Leopoldo et al., 2008; cited from earlier work.
For the next data set, the target named is T1, 5-HT1A receptors (Homo sapiens, UniProt P08908).
T1 sequence (P08908 1-422): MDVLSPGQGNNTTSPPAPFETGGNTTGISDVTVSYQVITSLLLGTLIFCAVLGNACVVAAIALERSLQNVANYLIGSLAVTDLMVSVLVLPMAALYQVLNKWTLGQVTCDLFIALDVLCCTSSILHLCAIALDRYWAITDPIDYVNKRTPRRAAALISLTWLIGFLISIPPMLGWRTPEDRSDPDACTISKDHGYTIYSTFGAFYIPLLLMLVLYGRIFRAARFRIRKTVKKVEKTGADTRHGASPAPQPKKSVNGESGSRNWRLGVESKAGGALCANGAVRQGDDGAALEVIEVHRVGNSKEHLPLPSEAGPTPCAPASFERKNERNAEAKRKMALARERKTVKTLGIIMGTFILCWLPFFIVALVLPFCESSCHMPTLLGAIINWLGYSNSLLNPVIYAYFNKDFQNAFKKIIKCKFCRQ
Kind of data set: Binding affinity for 5-HT1A receptors. The text has this: Table 1 Binding Affinity Data and Pharmacokinetic Parameters of Test Compounds. | column: 5-HT1AKi [nM]

Data set [3] deals with mGluR-LTD in CA1 pyramidal neurons of hippocampal slices (native 5-HT7 receptors). Kind of data set: Patch clamp: reversal of DHPG-induced mGluR-LTD of EPSCs in CA1 pyramidal neurons, hippocampal slices from wild-type mice. The format is cell-based. The conditions noted are these: 5 min, measured 45 min after DHPG; for EPSC amplitude: compound 10 nM. On the procedure: (§1) Patch clamp experiments were performed on mouse hippocampal slices from wild-type (wt) mice (FVB and C57BL/6J background) and Fmr1 KO2 mice (C57BL/6J background, kindly provided by Prof. Willemsen, Erasmus MC, Rotterdam, The Netherlands). […] Every care was taken to maximally reduce the number of animals and to minimize discomfort.
(§2) Acute hippocampal slices ([…]) were cut with a vibratome (Leica VT 1200). Slices were continually perfused with oxygenated ACSF. After 3 h of recovery, one slice was placed in the recording chamber of a patch camp set up and viewed with infrared microscopy (Leica DMLFS). A tungsten electrode was placed in the stratum radiatum to stimulate Schaffer collaterals with negative current pulses (duration 0.3 ms, delivered every 15 s by A310 Accupulser, WPI, USA). Evoked AMPA receptor-mediated excitatory post-synaptic currents (EPSCs) were recorded from CA1 pyramidal neurons under whole-cell patch clamp (holding potential -70 mV; EPC7-plus amplifier HEKA, Germany). Stimulation intensity was set to induce half-maximal EPSC amplitude. Series resistance (Rs) was monitored throughout the recording by means of 10 mV hyperpolarizing pulses; recordings were discarded from analysis if Rs changed by more than 20%. EPSC traces were filtered at 3 kHz and digitized at 10 kHz. Data were acquired and analyzed using Signal software (CED, England). The recording micropipette (resistance 1.5–3 MΩ) was filled with intracellular solution (in mM: K-gluconate 140; HEPES 10; NaCl 10; MgCl2 2; EGTA 0.2; Mg-ATP 3.5; Na-GTP 1; pH 7.3).
(§3) Cumulative histograms indicate % EPSC amplitude (mean ± SEM from groups of neurons) after application of DHPG alone (control LTD) or DHPG followed by a 5-HT7 receptor agonist. EPSC amplitude values from two groups of neurons were compared using the Student's t-test, with n indicating the number of neurons tested in each condition.
(In general: The patch-clamp technique gives a direct electrical read-out from membranes.)

Data set [4] shares this test system. Kind of data set: Patch clamp: reversal of DHPG-induced mGluR-LTD of EPSCs in CA1 pyramidal neurons, hippocampal slices from Fmr1 KO mice. The conditions noted are these: Fmr1 KO (C57BL6J) slices, 5 min; for EPSC amplitude: compound 10 nM, applied after DHPG (100 μM, 5 min). The format is cell-based. On the procedure: as §1, §2, §3
Another data set has as its target 5-HT7 receptors (Homo sapiens, UniProt P34969). Kind of data set: Radioligand binding affinity for 5-HT7 receptors.
A further data set deals with T2, P-glycoprotein (P-gp) (Homo sapiens, UniProt P08183).
T2 construct: fluxes in Caco-2 cells monolayer; endogenous in cells; host or cells: Caco-2 cells
Kind of data set: Efflux ratio (BA/AB) in Caco-2 cells monolayer. The format is in vitro ADME. The conditions noted are these: efflux ratio basal-to-apical / apical-to-basal, Caco-2 monolayer, cutoff 3 for P-gp substrate. From the text: This system is an in vitro model to evaluate the interaction of small molecules with P-glycoprotein (P-gp), an efflux pump localized on the blood-brain barrier that prevents xenobiotics to enter the brain. Therefore, a centrally acting drug should not be a P-gp substrate.

Where [5] appears, read: wt FVB slices, applied after DHPG (100 μM, 5 min).

T2 sequence (P08183 whole entry): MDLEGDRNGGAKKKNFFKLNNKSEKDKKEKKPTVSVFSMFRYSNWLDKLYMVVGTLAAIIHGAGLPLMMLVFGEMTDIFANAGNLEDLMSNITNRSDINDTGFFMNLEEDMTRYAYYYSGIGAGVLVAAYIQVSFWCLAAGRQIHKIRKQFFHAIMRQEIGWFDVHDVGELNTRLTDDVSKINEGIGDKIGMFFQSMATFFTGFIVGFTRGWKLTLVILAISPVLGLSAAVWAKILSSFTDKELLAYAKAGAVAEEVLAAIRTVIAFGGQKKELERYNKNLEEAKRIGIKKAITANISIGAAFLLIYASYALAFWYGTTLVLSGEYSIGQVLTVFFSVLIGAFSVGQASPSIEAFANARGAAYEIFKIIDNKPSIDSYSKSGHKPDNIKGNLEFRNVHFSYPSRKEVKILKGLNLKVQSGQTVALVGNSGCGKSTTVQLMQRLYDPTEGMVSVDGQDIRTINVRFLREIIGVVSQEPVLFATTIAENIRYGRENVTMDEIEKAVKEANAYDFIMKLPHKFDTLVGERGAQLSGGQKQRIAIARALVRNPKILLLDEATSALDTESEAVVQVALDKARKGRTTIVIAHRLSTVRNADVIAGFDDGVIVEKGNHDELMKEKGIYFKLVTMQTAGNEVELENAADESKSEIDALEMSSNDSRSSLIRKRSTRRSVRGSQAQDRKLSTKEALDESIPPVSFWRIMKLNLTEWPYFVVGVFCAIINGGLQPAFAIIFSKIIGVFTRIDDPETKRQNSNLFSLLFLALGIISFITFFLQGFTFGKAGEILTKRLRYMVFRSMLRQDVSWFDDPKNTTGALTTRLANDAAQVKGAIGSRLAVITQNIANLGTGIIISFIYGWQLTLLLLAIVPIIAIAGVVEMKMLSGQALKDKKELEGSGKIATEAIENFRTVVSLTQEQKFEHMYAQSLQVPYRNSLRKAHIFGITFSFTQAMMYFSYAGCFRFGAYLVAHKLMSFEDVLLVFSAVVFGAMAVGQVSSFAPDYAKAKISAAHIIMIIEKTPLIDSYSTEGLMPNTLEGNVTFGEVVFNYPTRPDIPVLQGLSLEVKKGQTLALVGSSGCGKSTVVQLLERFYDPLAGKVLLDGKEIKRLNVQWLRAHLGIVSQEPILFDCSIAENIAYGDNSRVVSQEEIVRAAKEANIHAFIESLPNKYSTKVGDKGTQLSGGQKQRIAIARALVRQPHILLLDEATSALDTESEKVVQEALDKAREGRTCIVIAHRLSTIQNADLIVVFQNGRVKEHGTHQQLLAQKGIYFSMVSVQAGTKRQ
Chain of 5-HT7 receptors (P34969 whole entry): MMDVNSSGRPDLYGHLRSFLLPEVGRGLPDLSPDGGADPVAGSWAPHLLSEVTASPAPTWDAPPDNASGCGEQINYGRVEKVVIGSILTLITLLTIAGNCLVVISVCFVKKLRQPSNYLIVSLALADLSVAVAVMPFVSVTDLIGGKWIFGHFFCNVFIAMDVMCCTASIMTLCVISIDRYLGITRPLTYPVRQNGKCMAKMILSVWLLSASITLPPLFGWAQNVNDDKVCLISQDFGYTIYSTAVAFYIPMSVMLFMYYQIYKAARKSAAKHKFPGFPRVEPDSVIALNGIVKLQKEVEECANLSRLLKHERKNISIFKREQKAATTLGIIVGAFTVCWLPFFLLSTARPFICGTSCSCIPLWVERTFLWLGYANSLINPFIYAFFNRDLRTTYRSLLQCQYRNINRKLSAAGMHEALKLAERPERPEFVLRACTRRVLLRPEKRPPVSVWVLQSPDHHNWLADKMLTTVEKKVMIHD

As a reminder, the half-life is the time needed for the level to fall by half in the phase considered. Low readings indicate fast loss, high ones slow loss. What is called microsomal CLint is the capacity of the preparation to metabolise the compound, expressed as a volume cleared per time. One may read the pKi as the Ki on a negative log10 scale, so that one unit is a factor of ten. Consider `N#Cc1ccc(CNC(=O)CCCCCN2CCN(c3ccccc3-c3ccccc3)CC2)cc1` [LP-211, N-(4-cyanophenylmethyl)-4-(2-diphenyl)-1-piperazinehexanamide, reference compound], for which the half-life at 1 μM in data set [1] stood at 10.6 min. Also, the intrinsic metabolic clearance (microsomal CLint) at 1 μM in data set [1] is 131 µL/min/mg. The in vivo half-life in data set [2] was 65 min. On 5-HT1A receptors, the pKi was 6.73. For the same compound, the EPSC amplitude is recorded as 99.4 ± 1.5 % of control in data set [3] (wt C57BL/6J slices, applied 5 min after DHPG (100 μM, 5 min)); 78 ± 5 % of control in data set [4] (45 min after DHPG); 97 ± 3 % of control in data set [4] (55 min after DHPG).

Turning to `N[C@H](C(=O)O)c1cc(O)cc(O)c1` [DHPG, S-3,5-DHPG], the “EPSC amplitude after DHPG alone (mGluR-LTD)” value in data set [3] (wt C57BL/6J slices, DHPG 100 μM) was 74.4 ± 9.8 % of control; in data set [4] (DHPG 100 μM, measured 45 min after DHPG), 56 ± 5 % of control and 56 ± 12 % of control.

In the case of `COc1ccc(-c2ccccc2N2CCNCC2)cc1` [PM-20, 1-[2-(4-methoxyphenyl)phenyl]piperazine], in data set [3] (setting [5]), the EPSC amplitude is recorded as 60 ± 7 % of control.

By efflux ratio is commonly meant the permeability from basolateral to apical divided by that in the opposite direction, in the common usage. Turning to `COc1ccc(-c2ccccc2N2CCN(CCCCCC(=O)NCc3ccc(F)nc3)CC2)cc1` [PF-62, N-(2-fluoropyridin-5-ylmethyl)-4-[2-(4-methoxy)phenyl]-1-piperazinehexanamide], the results for the negative logarithm of the Ki (pKi) on 5-HT7 receptors and on 5-HT1A receptors were 8.42 and 6.82, respectively. In data set [1], this compound registered a half-life at 1 μM of 6.7 min. Further, the intrinsic clearance (microsomal CLint) at 1 μM in data set [1] was 205 µL/min/mg. Moreover, the efflux ratio at P-glycoprotein (P-gp) stood at 4.2.

`c1ccc(-c2ccccc2N2CCNCC2)cc1` [RA-7, 1-(2-biphenyl)piperazine]: the EPSC amplitude in data set [3] (setting [5]) is 64 ± 7 % of control.

Turning to `COc1ccc(-c2ccccc2N2CCN(C[C@@H](O)COc3cnccn3)CC2)cc1` [BA-10, (R)-1-[4-[2-(4-methoxyphenyl)phenyl]piperazin-1-yl]-3-(2-pyrazinyloxy)-2-propanol], in data set [1], the half-life at 1 μM worked out at 14.8 min and the microsomal CLint at 1 μM is 96 µL/min/mg.

Values taken from PMC4357247, “Novel agonists for serotonin 5-HT7 receptors reverse metabotropic glutamate receptor-mediated long-term depression in the hippocampus of wild-type and Fmr1 KO mice, a model of Fragile X Syndrome” (Frontiers in Behavioral Neuroscience, 2015).
